Measurements: paper PMC10783087 (Microbiology Spectrum, 2023)
In brackets after ≈: the same amount, converted by molar mass.

Tests used:
H37Rv = assay: microbe, parasite or virus in culture; format: cell-based; conditions: Mycobacterium tuberculosis, read-out: MIC
Erdman (mmpR5 E21K) = format: cell-based, M. tuberculosis
Mtb H37Rv = format: cell-based, M. tuberculosis
WT Mtb Erdman = format: cell-based, M. tuberculosis; conditions: area under the dose-response curve
[1] = tested on: mixed mmpL3 mutant pool (24 unique Mtb mmpL3 mutants); format: cell-based, M. tuberculosis
H37Rv (gyrA D94K) = format: cell-based, M. tuberculosis
H37Rv (rpoB S450L) = format: cell-based, M. tuberculosis
Mtb = conditions: cited from earlier work

Structure (SMILES)	MIC (H37Rv)	EC50 (Erdman (mmpR5 E21K))	Frequency of resistance, 2 × MIC (Mtb H37Rv)	Frequency of resistance, 8 × MIC (Mtb H37Rv)	Frequency of resistance, 16 × MIC (Mtb H37Rv)	WT AUC (WT Mtb Erdman)	Mixed mmpL3 AUC [1]	MIC, H37Rv (gyrA D94K) (H37Rv (gyrA D94K))	MIC, H37Rv (rpoB S450L) (H37Rv (rpoB S450L))	in vitro frequency of resistance (FoR) (Mtb)	activity (MIC) against the rpoB S450L strain (H37Rv (rpoB S450L))
COc1nc2ccc(Br)cc2cc1[C@@H](c1ccccc1)[C@@](O)(CCN(C)C)c1cccc2ccccc12 [Bedaquiline]	2 µg/mL (≈ 3.6 µM)	0.91 µM	1.43 × 10^−7	3.57 × 10^−8	3.57 × 10^−8						
CC(C)/N=c1\cc2n(-c3ccc(Cl)cc3)c3ccccc3nc-2cc1Nc1ccc(Cl)cc1 [Clofazimine]		1.6 µM									
CC[C@@H](CO)NCCN[C@@H](CC)CO [Ethambutol]	1 µg/mL (≈ 4.89 µM)		3.61 × 10^−6	8.57 × 10^−7	1.79 × 10^−8						
Cc1ccc2nc(SCC(=O)N(C(C)C)C(C)C)[nH]c2c1 [HC2183]						101.7	34.08				
NNC(=O)c1ccncc1 [Isoniazid]	0.125 µg/mL (≈ 0.911 µM)		5.0 × 10^−6	3.93 × 10^−6	2.71 × 10^−6			0.2 µM (≈ 0.0274 µg/mL)	0.4 µM (≈ 0.0549 µg/mL)	10^−6	
Cc1cc2nc(SCC(=O)N(C(C)C)C(C)C)[nH]c2cc1C [MSU-42766]	0.5 µg/mL (≈ 1.57 µM)	1.8 µM	1.36 × 10^−6	8.0 × 10^−8	0	169.9	73.44	1.5 µM (≈ 0.479 µg/mL)	0.8 µM (≈ 0.256 µg/mL)		0.25 µg/mL
CC(C)N(C(=O)CNc1nc2cc(Cl)c(Cl)cc2[nH]1)C(C)C [MSU-43165]						214.5	147.2				
CC(C)N(C(=O)COc1nc2cc(Cl)c(Cl)cc2[nH]1)C(C)C [MSU-43170]						247.5	160.3				
COc1c(N2C[C@@H]3CCCN[C@@H]3C2)c(F)cc2c(=O)c(C(=O)O)cn(C3CC3)c12 [Moxifloxacin]								>5.0 µM	0.15 µM (≈ 0.0602 µg/mL)		
CC1COc2c(N3CCN(C)CC3)c(F)cc3c(=O)c(C(=O)O)cn1c23 (centres unmarked) [Ofloxacin]	1 µg/mL (≈ 2.77 µM)		5.36 × 10^−7	7.14 × 10^−8	3.57 × 10^−8						
O=[N+]([O-])c1cn2c(n1)OC[C@@H](OCc1ccc(OC(F)(F)F)cc1)C2 [Pretomanid]	0.5 µg/mL (≈ 1.39 µM)		1.79 × 10^−6	8.57 × 10^−7	1.43 × 10^−7						
CO[C@H]1/C=C/O[C@@]2(C)Oc3c(C)c(O)c4c(O)c(c(/C=N/N5CCN(C)CC5)c(O)c4c3C2=O)NC(=O)/C(C)=C\C=C\[C@H](C)[C@H](O)[C@@H](C)[C@@H](O)[C@@H](C)[C@H](OC(C)=O)[C@@H]1C [Rifampicin]	0.5 µg/mL (≈ 0.608 µM)		5.36 × 10^−7	7.14 × 10^−8	3.57 × 10^−8						
